# Bridge positions count the residues as written; N and C are the ends. Peptide text beside a SMILES is read from it.
# Test system: active TGF-β
# Assay: Active TGF-β level in lung tissue, bleomycin (BLM) mouse lung fibrosis model
# Type: in vivo
# Details: single intratracheal dose 3 mg/kg on Day 7, lung 24 h later; BLM model group = 100.00
# In short: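 Male C57/6J mice (6–8 wk) received intratracheal bleomycin 0.7 USP/kg on Day 1, then a single intratracheal peptide dose of 3 mg/kg on Day 7, with saline for the model group. The value is the ratio of peptide group to model group.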
row,Compound,"active TGF-β content in lung tissue, ratio to model group, Mean(%)"
1,"CC(=O)N[C@H](C(=O)N[C@H]1CSSC[C@@H](C(=O)O)NC(=O)[C@H](CC(N)=O)NC(=O)[C@H](CC(=O)O)NC(=O)[C@H](CCC(=O)O)NC(=O)[C@H](C)NC(=O)[C@H](CC(=O)O)NC1=O)[C@@H](C)O [SEQ ID NO: 43, Ac-Thr-cyclo[Cys-Asp-Ala-Glu-Asp-Asn-Cys]] (Ac-TCDAEDNC-OH; disulfide 2-8)",75.92%
2,"Ac-TQDAEDN-NH2 [SEQ ID NO: 06, Ac-Thr-Gln-Asp-Ala-Glu-Asp-Asn-NH2]",76.76%
3,"Ac-TQDAEDPTAS-NH2 [SEQ ID NO: 25, Ac-Thr-Gln-Asp-Ala-Glu-Asp-Pro-Thr-Ala-Ser-NH2]",86.63%
4,"CC(=O)N[C@H](C(=O)N[C@H]1CSSC[C@@H](C(N)=O)NC(=O)[C@H](CC(N)=O)NC(=O)[C@H](CC(=O)O)NC(=O)[C@H](CCC(=O)O)NC(=O)[C@H](C)NC(=O)[C@H](CC(=O)O)NC1=O)[C@@H](C)O [SEQ ID NO: 44, Ac-Thr-cyclo[Cys-Asp-Ala-Glu-Asp-Asn-Cys]-NH2] (Ac-TCDAEDNC-NH2; disulfide 2-8)",81.73%
5,"Ac-TQDAEDNTASH-NH2 [SEQ ID NO: 33, Ac-Thr-Gln-Asp-Ala-Glu-Asp-Asn-Thr-Ala-Ser-His-NH2]",86.61%
6,"Ac-TQDPEDNTAS-NH2 [SEQ ID NO: 26, Ac-Thr-Gln-Asp-Pro-Glu-Asp-Asn-Thr-Ala-Ser-NH2]",83.44%
7,"C[C@@H]1NC(=O)[C@H]([C@@H](C)O)NC(=O)[C@H](CC(N)=O)NC(=O)[C@H](CC(=O)O)NC(=O)[C@H](CCC(=O)O)NC(=O)[C@@H]2CCCN2C(=O)[C@H](CC(=O)O)NC(=O)[C@H](CCC(N)=O)NC(=O)[C@H]([C@@H](C)O)NC(=O)[C@H](CO)NC1=O [SEQ ID NO: 46, cyclo[Thr-Gln-Asp-Pro-Glu-Asp-Asn-Thr-Ala-Ser]] (cyclo(ASTQDPEDNT))",79.36%
8,"Ac-TQDAEDPTA-NH2 [SEQ ID NO: 22, Ac-Thr-Gln-Asp-Ala-Glu-Asp-Pro-Thr-Ala-NH2]",82.72%

# Same assay, conditions: single intratracheal dose 3 mg/kg on Day 7, lung 24 h later; BLM model group = 100.00; 3 mg/kg
row,Compound,"active TGF-β content in lung tissue, ratio to model group, Mean(%)"
1,"C[C@@H]1NC(=O)[C@H](CC(=O)O)NC(=O)[C@H](CCC(N)=O)NC(=O)[C@H]([C@@H](C)O)NC(=O)[C@H](CC(N)=O)NC(=O)[C@H](CC(=O)O)NC(=O)[C@H](CCC(=O)O)NC1=O [SEQ ID NO: 40, cyclo[Thr-Gln-Asp-Ala-Glu-Asp-Asn]] (cyclo(AEDNTQD))",68.27%

# From US20250388623A1, “PEPTIDE INHIBITOR AND USE THEREOF” (CHENGDU BRILLIANT INSPIRATION BIOTHERAPEUTICS CO., LTD, priority 2022, published 2025)
